Series [1] concerns the target T1, human CysLT1 receptor (Homo sapiens, UniProt Q9Y271).
T1 construct: expressed in transfected cells; host or cells: AV12-664 (ATCC-9595)
T1 sequence (Q9Y271 1-337): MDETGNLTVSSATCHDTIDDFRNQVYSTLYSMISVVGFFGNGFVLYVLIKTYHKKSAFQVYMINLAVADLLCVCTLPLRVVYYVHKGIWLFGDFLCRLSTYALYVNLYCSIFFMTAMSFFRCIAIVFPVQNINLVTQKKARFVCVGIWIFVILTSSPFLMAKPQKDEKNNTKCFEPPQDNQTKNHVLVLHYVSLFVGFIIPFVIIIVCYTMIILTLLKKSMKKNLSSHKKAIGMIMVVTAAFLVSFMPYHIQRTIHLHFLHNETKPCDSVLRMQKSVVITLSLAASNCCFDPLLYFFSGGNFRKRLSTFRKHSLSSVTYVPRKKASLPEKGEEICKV
Description: Antagonism of LTD4-induced increase in intracellular calcium within a CysLT1 receptor expressing cell line (FLIPR). The format is cell-based. To be noted: 6 nM LTD4; read-out: antagonism of CysLT1 receptors, IC50. The protocol: Antagonism of Cysteinyl-leukotriene D4 (LTD4) -Induced Increase in Intracellular Calcium within a Cysteinyl-Leukotriene 1 (CysLT1) Receptor Expressing Cell Line
Cell lines expressing the human CysLT1 receptor [AV12-664 (ATCC-9595)] are derived and maintained in culture media: DMEM with 5% dialyzed fetal bovine serum, 1 mM glutamine, and 1 mM sodium pyruvate. Confluent cultures are passaged weekly. Intracellular calcium levels are monitored in the CysLT1-expressing cells with the addition of LTD4, with or without prior exposure to the compounds being tested as antagonists with a Fluorometric Imaging Plate Reader (FLIPR, Molecular Devices). The following buffer is used throughout as an assay buffer: Hanks Buffered Saline Solution without phenol red (GIBCO), with 10 mM HEPES pH 7.4. Cells that had been plated 48 hours prior at a density of 20-25,000 cells per well in a 96-well plate are loaded with a calcium-sensitive dye for 90 minutes at 25° C. Fluo-3 (2 mM in DMSO, Molecular Probes) is mixed with an equal volume of 10% pluronic acid in DMSO, and diluted to 8 μM in the buffer described above containing 10% fetal bovine serum to make the loading buffer. Following loading of the cells, the buffer is removed and replaced with assay buffer prior to drug addition and monitoring on the FLIPR for several minutes. The resulting signal from the addition of 6 nM LTD4 (provides approximately 90% of the maximal signal with 25 nM LTD4) is determined by taking the difference of the maximal fluorescent peak height minus the background fluorescence in each well and expressing the results as a percent of the signal seen without pretreatment of the test compound(s). Least squares curve fitting with a four-parameter equation is applied to the resulting dose-% inhibition curve to determine the resulting IC50 values.

The target of series [2] is T2, human mGlu2 receptors (Homo sapiens, UniProt Q14416).
T2 construct: expressed in transfected cells; host or cells: RGT cells (co-transfected with the glutamate/aspartate transporter GLAST and stably transfected with Galpha15)
Description: Potentiation of glutamate-induced increase in intracellular calcium with a mGlu2 expressing cell line (FLIPR). The class given is cell-based. To be noted: with submaximal glutamate-site agonist (e.g. 1 μM glutamate). The protocol: Potentiation of Glutamate-Induced Increase in Intracellular Calcium with a mGlu2 Expressing Cell Line
Cell lines expressing human mGlu2 receptors are derived as previously described (Desai, Burnett, Mayne, Schoepp, Mol. Pharmacol. 48, 648-657, 1995) and cultured in DMEM with 5% dialyzed fetal bovine serum, 1 mM glutamine, 1 mM sodium pyruvate, 50 μg/mL Geneticin G418, and 0.2 mg/mL hygromycin B. Confluent cultures are passaged weekly. These cells are referred to as RGT cells for Rat Glutamate Transporter, and have been co-transfected with the glutamate/aspartate transporter GLAST. The RGT cell line expressing the mGlu2 receptors is stably transfected with the promiscuous G-protein, Galpha15 to change the signaling pathway to the mGlu2 receptor to one that could be easily measured through release of intracellular calcium. Thus, intracellular calcium levels are monitored before and after the addition of drugs on a Fluorometric Imaging Plate Reader (i.e. FLIPR, Molecular Devices). The following buffer is used throughout as an assay buffer: 10 mM KCl, 138 mM NaCl, 5 mM Ca Cl2, 1 mM MgCl2, 4 mM Na H2PO4, 10 mM Glucose, 10 mM HEPES, pH 7.4. Cells that had been plated 48 hours prior at a density of 30-40,000 cells per well in a 96-well plate are loaded with a calcium-sensitive dye for 90 minutes at 25° C. Fluo-3 (2 mM in DMSO, Molecular Probes) are mixed with a equal volume of 10% pluronic acid in DMSO, and diluted to 8 μM into the buffer described above containing 10% fetal bovine serum to make the loading buffer. Following loading of the cells, the loading buffer is removed and replaced with assay buffer prior to drug addition and monitoring on the FLIPR. The resulting signal from the addition of compounds of formula (I) and submaximal concentrations of a glutamate-site agonist (e.g. 1 μM glutamate) is determined by taking the difference of the maximal fluorescent peak height minus the background fluorescence in each well and expressing the results as a percent of the signal seen with a maximal glutamate response (30 μM glutamate, typically about 30-50,000 Relative Fluorescent Units). Least squares curve fitting with a four-parameter equation is then applied to the resulting dose-% response curve to determine the resulting EC50 values.
For orientation: A change in cytosolic calcium serves as a functional read-out for many receptors and channels.

T2 sequence (Q14416 19-872): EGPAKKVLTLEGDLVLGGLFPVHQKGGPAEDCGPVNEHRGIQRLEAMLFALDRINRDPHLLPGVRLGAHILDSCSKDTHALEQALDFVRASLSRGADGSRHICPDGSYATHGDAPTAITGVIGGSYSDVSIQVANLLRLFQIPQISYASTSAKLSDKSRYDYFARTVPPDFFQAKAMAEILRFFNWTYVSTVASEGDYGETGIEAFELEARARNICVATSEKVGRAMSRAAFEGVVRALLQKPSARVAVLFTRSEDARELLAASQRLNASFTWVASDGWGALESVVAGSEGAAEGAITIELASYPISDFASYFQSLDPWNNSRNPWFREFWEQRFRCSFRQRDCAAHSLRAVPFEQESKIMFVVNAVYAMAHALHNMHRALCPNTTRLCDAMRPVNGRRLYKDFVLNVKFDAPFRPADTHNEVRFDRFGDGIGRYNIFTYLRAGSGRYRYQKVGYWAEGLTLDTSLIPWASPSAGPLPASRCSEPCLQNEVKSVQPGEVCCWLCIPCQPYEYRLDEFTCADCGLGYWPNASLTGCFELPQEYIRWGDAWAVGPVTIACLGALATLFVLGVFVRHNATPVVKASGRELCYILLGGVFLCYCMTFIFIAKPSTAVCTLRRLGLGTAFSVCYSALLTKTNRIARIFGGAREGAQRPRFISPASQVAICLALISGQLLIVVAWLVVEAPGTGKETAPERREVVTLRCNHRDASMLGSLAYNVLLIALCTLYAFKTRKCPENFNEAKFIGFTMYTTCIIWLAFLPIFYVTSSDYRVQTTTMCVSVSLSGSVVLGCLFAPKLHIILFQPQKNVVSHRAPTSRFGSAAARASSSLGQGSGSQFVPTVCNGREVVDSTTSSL

A word on the IC50: it is the concentration that inhibits the measured activity by half. For `CCCc1c(OCc2ccc(Cc3cccc(-c4nn[nH]n4)c3)cc2)ccc(C(C)=O)c1O` [Example 60, 1-(2-hydroxy-3-propyl-4-{4-[3-(1H-tetrazol-5-yl)-benzyl]-benzyloxy}-phenyl)-ethanone], in series [1], the IC50 was under 750 nM.
What is called EC50 is the concentration at which the effect is half-maximal. Turning to `CC(=O)c1ccc(OCc2ccc(Cc3cccc(C(=O)O)c3)cc2)c(Cl)c1O` [Example 65, 3-[4-(4-Acetyl-2-chloro-3-hydroxy-phenoxymethyl)-benzyl]-benzoic acid], the EC50 in series [2] is under 100 nM. Also, the IC50 in series [1] is under 750 nM.
Take `CCCc1c(OCc2ccc(C(O)c3ccc(OC)c(-c4nnn[nH]4)c3)cc2)ccc(C(C)=O)c1O` (stereo not shown) [Example 47, 1-[2-hydroxy-4-(4-{hydroxy-[4-methoxy-3-(2H-tetrazol-5-yl)-phenyl]-methyl}-benzyloxy)-3-propyl-phenyl]-ethanone]: the EC50 in series [2] was under 100 nM. Also, the IC50 in series [1] is under 750 nM.
The matching figures for `CCCc1c(OCc2ccc(C(O)c3cccc(C(=O)O)c3)cc2)ccc(C(C)=O)c1O` (single isomer, unassigned; isomer 1) [Example 83, (+)-3-{[4-(4-Acetyl-3-hydroxy-2-propyl-phenoxymethyl)-phenyl]-hydroxy-methyl}-benzoic acid isomer 1]: under 100 nM and under 750 nM.
As a reminder, the melting point is the temperature, or range, at which the solid turns liquid. Take `CCCc1c(OCc2ccc([C@H](O)c3cccc(C(=O)O)c3)cc2)ccc(C(C)=O)c1O` [Example 155, 3-{[4-(4-acetyl-3-hydroxy-2-propyl-phenoxymethyl)-phenyl]-(S)-hydroxymethyl}-benzoic acid]: the melting point was found to be 198.35 °C.
With `CCCc1c(OCc2ccc(C(F)c3cccc(-c4nnn[nH]4)c3)cc2)ccc(C(C)=O)c1O` (single isomer, unassigned; isomer 1) [Example 81, 1-[4-(4-{Fluoro-[3-(1H-tetrazol-5-yl)-phenyl]-methyl}-benzyloxy)-2-hydroxy-3-propyl-phenyl]-ethanone isomer 1], the EC50 in series [2] was under 100 nM. Moreover, in series [1], the IC50 is under 750 nM.

The record behind these values is patent US7816523B2, “Potentiators of glutamate receptors” (Eli Lilly and Company, priority 2004, dated 2010).
